This is an account of results in patent US20090233906A1, “IMIDAZOAZEPINONE COMPOUNDS” (priority 2006, published 2009).

pIC50: −log10 of the molar value.

The first assay deals with human T-bet. In words: HEKT-bet-luc assay (normalized). The class given is cell-based. Conditions: Homo sapiens, HEK293, 24 h, normalized HEKT-bet-luc IC50; engineered HEK cells, T-box responsive luciferase reporter, compound 24 hours; normalized to reference ER-819544; read-out: IC50. How it is done: HEKT-bet-luc assay: This assay measures a T-bet dependent reporter (luciferase) activity in engineered HEK cells that express a human T-bet and a T-box responsive element driving luciferase reporter. HEKT-bet cells were plated at 2×10^4/well in 96-well plate and compound was added into cell culture for 24 hours. Luciferase activity was measured by adding 50 μl of Steady-Glo reagent (Promega) and samples were read in Victor V reader (PerkinElmer). The activity of compound was determined by comparing compound treated samples to non-compound treated vehicle controls. The IC50 values were calculated utilizing a maximum value corresponding to the amount of luciferase in the absence of a test compound and a minimum value corresponding to a test compound value obtained at maximum inhibition.
Determination of Normalized HEKT-bet IC50 values: Compounds were assayed in microtiter plates. Each plate included a reference compound which was ER-819544. The un-normalized IC50 value for a particular compound was divided by the IC50 value determined for the reference compound in the same microtiter plate to provide a relative potency value. The relative potency value was then multiplied by the established potency of the reference compound to provide the normalized HEKT-bet IC50 value. […] The IC50 values provided herein were obtained using this normalization method.
(Reporter assays use an easily measured gene product as a stand-in for the process of interest.)
`C=C1C=C2N(Cc3cc(OC)cc(OC)c31)C(=O)N(CC)C21CCN(Cc2cc(OC)cc(OC)c2)CC1` [compound 819703]: the negative logarithm of the IC50 (pIC50) was 6.61.
For the compound `COCCN1C(=O)N2Cc3cc(F)cc(F)c3C(C)(C)C=C2C12CCN(Cc1cc(OC)cc(OC)c1)CC2` [compound 819704], the pIC50 was 5.56.
As to `COCCN1C(=O)N2Cc3cc(OC)cc(OC)c3C(C)(C)C=C2C12CCN(Cc1cc(OC)cc(OC)c1)CC2` [compound 819544], the pIC50 is 7.46.
Take `COCCN1C(=O)N2Cc3ccccc3C(C)(C)C=C2C12CCN(Cc1cc(OC)cc(OC)c1)CC2` [compound 819677]: the pIC50 is 5.99.
Regarding `CCN1C(=O)N2Cc3cc4c(cc3C(C)(C)C=C2C12CCN(Cc1cc(OC)cc(OC)c1)CC2)OCO4` [compound 819708], the negative-log IC50 (pIC50) is 5.44.
Same read-out and setting: next, `CC=C1C=C2N(Cc3cc(OC)cc(OC)c31)C(=O)N(CC)C21CCN(Cc2cc(OC)cc(OC)c2)CC1` [compound 819651]: 6.96; `CCC1C=C2N(Cc3cc(OC)cc(OC)c31)C(=O)N(CCOC)C21CCN(Cc2cc(OC)cc(OC)c2)CC1` (stereo not shown) [compound 819549]: 7.82.
Turning to `COc1cc(CN2CCC3(CC2)C2=CC(C)(C)c4c(cc(OC)cc4OC)CN2C(=O)N3Cc2ccccc2)cc(OC)c1` [compound 819662], the pIC50 is 6.05.
Consider `CCN1C(=O)N2Cc3cc(OC)cc(OC)c3C(C)(C)C=C2C12CCN(Cc1cccc3cnccc13)CC2` [compound 819603], for which the negative-log IC50 (pIC50) was 6.47.
The same measure, in the same setting: in the case of `COc1cc(CN2CCC3(CC2)C2=CC(C)(C)c4c(cc(OC)cc4OC)CN2C(=O)N3CCO)cc(OC)c1` [compound 819657] it was 7.19.
With `CCN1C(=O)N2Cc3cc(OC)cc(OC)c3C(C)C=C2C12CCN(Cc1cn(C)c3ccccc13)CC2` (stereo not shown) [compound 819596], the pIC50 was 6.14.
On the same count and under the same terms, in the case of `CCN1C(=O)N2Cc3cc(OC)cc(OC)c3C(C)C=C2C12CCN(Cc1cccs1)CC2` (stereo not shown) [compound 819556] it was 6.78.
Turning to `COCCN1C(=O)N2Cc3cc(OC)ccc3C(C)(C)C=C2C12CCN(Cc1cc(OC)cc(OC)c1)CC2` [compound 819655], the pIC50 was 6.69.
For the compound `COCCN1C(=O)N2Cc3cc(OC)cc(OC)c3CC=C2C12CCN(Cc1cc(OC)cc(OC)c1)CC2` [compound 819673], the negative-log IC50 (pIC50) was 6.99.
On to `CCN1C(=O)N2Cc3cc(OC)cc(OC)c3C(C)C=C2C12CCN(Cc1cc(Br)cc(Br)c1)CC2` (stereo not shown) [compound 819599], for which the pIC50 is 5.33.

The assay is the same for the next values; noted with them: normalized HEKT-bet-luc IC50; engineered HEK cells, T-box responsive luciferase reporter, compound 24 hours; normalized to reference ER-819544; read-out: IC50.
Regarding `COc1cc(CN2CCC3(CC2)C2=CC(C)(C)c4c(cc(OC)cc4OC)CN2C(=O)N3CCO)cc(OC)c1` [compound 819657], the pIC50 is 6.91.

By pIC50 is commonly meant the IC50 on a negative log10 scale, so that one unit is a factor of ten.
